Results: PMC12410356 (International Journal for Parasitology: Drugs and Drug …, 2025)

Legend:
[1] = system: E. multilocularis metacestode vesicles; assay: Metacestode vesicle viability assay (ATP, CellTiter-Glo); format: cell-based, Echinococcus multilocularis
Description: Viability was assessed after 12 days using the same metacestode vesicles as for the PGI release assay. Triton X-100 was added to each well to a final concentration of 0.1 %. Subsequently the metacestode vesicles were broken mechanically and 50 μL of the supernatant was mixed with 50 μL of CellTiter-Glo® buffer (Promega, Dübendorf, Switzerland). Measurements were performed on a HIDEX Sense microplate reader.

[2] = system: E. multilocularis metacestode vesicles; assay: Phosphoglucose isomerase (PGI) release assay (damage-marker release) on metacestode vesicles; format: cell-based, Echinococcus multilocularis; details: 10 μM; for PGI d5 (relative PGI release): 5 days; for PGI d12 (relative PGI release): 12 days
Description: In order to quantify the drug-induced damage on whole metacestode vesicles, phosphoglucose isomerase (PGI) assay was performed as described previously ([Stadelmann et al., 2010]) with few adaptations published recently ([Kaethner et al., 2023]). In short, 8 to 12 weeks-old metacestode vesicles were purified using 2 % sucrose with subsequent washes in PBS. Metacestode vesicles were diluted in two volumes of DMEM without phenol red containing penicillin (100 U/mL) and streptomycin (100 μg/mL). […] 0.1 % DMSO was used as a negative solvent control and 0.1 % Triton X-100 was used as a positive total damage control. Metacestode vesicles were incubated under a humid, 5 % CO2 atmosphere at 37 °C. After five and twelve days, supernatant was taken and pictures were made using a Nikon SMZ18 stereo microscope (Nikon, Basel, Switzerland) at 7.5 × magnification. PGI activity in the supernatants was measured on a HIDEX Sense microplate reader (Hidex, Turku, Finland). The corresponding values of the DMSO controls were subtracted from the values of the compounds and then PGI activity was calculated relative to 0.1 % Triton X-100. […] IC50 values were calculated applying the 3 parameter Weibull type 1 in R for each of the three independent experiments ([Ritler et al., 2020]).

[3] = overview screen, 10 μM, singlets, 12 days, relative to DMSO control
[4] = overview screen, singlets, relative to 0.1 % Triton X-100, DMSO subtracted
[5] = confirmation screen, 10 μM, triplicates, mean, 12 days
[6] = confirmation screen, triplicates, mean

| Structure (SMILES) | Viability d12 (relative viability) [1, 3] [%] | PGI d5 (relative PGI release) [2, 4] [%] | PGI d12 (relative PGI release) [2, 4] [%] | Viability d12 (relative viability) [1, 5] [%] | PGI d5 (relative PGI release) [2, 6] [%] | PGI d12 (relative PGI release) [2, 6] [%] | Viability d12 (relative viability) ([1]; 10 µM) [%] |
| --- | --- | --- | --- | --- | --- | --- | --- |
| O=S(=O)(NCB(O)O)c1cc2c(Cl)ccc(Cl)c2s1 [MMV1580841] | 81.7436 | -1.0927 | -26.0917 |  |  |  |  |
| COc1cc(C(C)(C)CCCC(C)C)cc(OC)c1OC [MMV1782102] | 58.4954 | 0.2099 | -19.1561 |  |  |  |  |
| Nc1cnn(C2OC(CO)C(O)C2O)c(=O)n1 (stereo not drawn) [MMV1580495] | 84.6299 | 0.6182 | 10.061 |  |  |  |  |
| Cc1ccc(Oc2ccccc2-c2csc(N=C3NCCCN3)n2)c(C)c1 [MMV1634493] | 36.7387 | 4.111 | 7.6311 |  |  |  |  |
| CC[C@H]1OC(=O)[C@H](C)[C@@H](O[C@H]2C[C@@](C)(OC)[C@@H](O)[C@H](C)O2)[C@H](C)[C@@H](O[C@@H]2O[C@H](C)C[C@H](N(C)C)[C@H]2O)[C@](C)(O)C[C@@H](C)C(=O)[C@H](C)[C@@H](O)[C@]1(C)O [MMV003137] | 63.8752 | 1.971 | -21.4001 |  |  |  |  |
| O=c1cc(NCCCN[C@@H]2CCOc3c(Br)cc(Br)cc32)[nH]c2ccsc12 [MMV1578884] | 55.812 | 13.7393 | 54.0946 |  |  |  |  |
| CC(C)c1ccc(COc2cccc(-c3cc([S+](C)[O-])c(C#N)c(=O)[nH]3)c2)cc1 (stereo not drawn) [MMV1582497] | 210.079 | 3.781 | -9.364 |  |  |  |  |
| CCC(C)NCC(O)Cn1c2ccc(Cl)cc2c2cc(Cl)ccc21 (stereo not drawn) [MMV1578570] | 22.9025 | 90.467 | 70.4859 | 94.06 | -0.08 | 0.27 |  |
| COc1nc2ccc(Br)cc2cc1[C@@H](c1ccccc1)[C@@](O)(CCN(C)C)c1cccc2ccccc12 [MMV689758] | 111.826 | -2.925 | -4.755 |  |  |  |  |
| CCc1cc(O)c(Oc2cccnc2N)cc1F [MMV1580854] | 45.6729 | -1.596 | -13.7258 |  |  |  |  |
| COc1ccc(CNC(=O)C(NS(=O)(=O)c2ccc3nc(C)sc3c2)C(C)C)cc1 (stereo not drawn) [MMV303733] | 97.8993 | -2.8306 | -9.3435 |  |  |  |  |
| O=P(O)(O)C(CCCc1cccc(Oc2ccccc2)c1)S(=O)(=O)O (stereo not drawn) [MMV1782215] | 65.7947 | 0.5378 | 19.5176 |  |  |  |  |
| O=c1[nH]cnc2c1ncn2[C@H]1CC[C@@H](CO)O1 [MMV637306] |  | -0.8027 | 5.98 |  |  |  | 229.844 |
| O=C1CCC(N2C(=O)c3ccccc3C2=O)C(=O)N1 (stereo not drawn) [MMV002612] |  | -1.046 | -2.884 |  |  |  | 99.2866 |
| Nc1nnnn1CCOc1c2[nH]c3ccc(Cl)cc3c2cc2c1[nH]c1ccc(Cl)cc12 [MMV1633966] | 104.455 | 3.53 | 16.3673 |  |  |  |  |
| Oc1c(C(Nc2nc3ccccc3s2)c2ccc(OC(F)F)cc2)ccc2cccnc12 (stereo not drawn) [MMV019724] | 220.792 | 0.06264 | 0.4013 |  |  |  |  |

| Structure (SMILES) | Viability d12 (relative viability) [1, 3] [%] | PGI d5 (relative PGI release) [2, 4] [%] | PGI d12 (relative PGI release) [2, 4] [%] | Viability d12 (relative viability) [1, 5] [%] | PGI d5 (relative PGI release) [2, 6] [%] | PGI d12 (relative PGI release) [2, 6] [%] | Viability d12 (relative viability) ([1]; 10 µM) [%] |
| --- | --- | --- | --- | --- | --- | --- | --- |
| Nc1nc(NC2Cc3ccc(F)cc3C2)nc(N2CCCCC2)n1 (stereo not drawn) [MMV1580839] | 110.365 | -3.67 | -6.152 |  |  |  |  |
| O=C(Nc1cccc(C2=NCCN2)c1)c1ccc(-c2ccc(C(=O)Nc3cccc(C4=NCCN4)c3)cc2)cc1 [MMV1580853] | 3.841 | 0.237 | 89.997 | 134.53 | -0.08 | 7.37 |  |
| CN(O)C(=O)c1cc2c(CN3CCC[C@H]3C(N)=O)cn(Cc3ccc(F)cc3)c2cn1 [MMV1782386] | 103.448 | 0.7573 | -1.18 |  |  |  |  |
| Cc1[nH]c2ccccc2c1CC(=O)N[C@@H](Cc1ccccc1)C(=O)N(C)c1ccccc1 [MMV1580798] | 204.25 | 0.141 | -4.531 |  |  |  |  |
| CC(C)(C)c1ccc(C(=O)NC(=O)N2CCCc3ccccc32)cc1 [MMV1782212] | 85.4175 | -2.428 | -24.6748 |  |  |  |  |
| O=C(N[C@H](Cc1cccc2ccccc12)C(=O)NCCc1c[nH]cn1)C1Cc2ccccc2C1 [MMV1782109] | 29.391 | -2.59 | -25.3398 |  |  |  |  |
| CC(C)Cn1c(=O)n(C)c(=O)c2c(-c3cncn3C)n(Cc3cccc4ccccc34)nc21 [MMV1581559] | 31.7083 | -0.3605 | 37.1265 |  |  |  |  |
| CCCCc1ccc(-c2cc(C(=O)O)cc(-c3ccc(Cl)cc3)n2)cc1 [MMV1580852] | 95.9921 | -0.3014 | -1.795 |  |  |  |  |
| CCCCCCCc1[nH]c2ccccc2c(=O)c1O [MMV1578561] | 124.494 | -1.205 | -12.6441 |  |  |  |  |
| CC1CN(c2ncnc3c2c(-c2ccccc2)cn3-c2ccc(F)cc2)CC(C)O1 (stereo not drawn) [MMV093250] | 6.513 | 0.6968 | 49.8105 | 29.29 | 0.08 | -0.45 |  |
| NC(=O)c1nccn([C@@H]2O[C@H](CO)[C@@H](O)[C@H]2O)c1=O [MMV1782104] | 106.79 | 1.472 | -19.2173 |  |  |  |  |
| CCc1cc(Cc2cnc(N)nc2N)cc2c1N(C)CCC2C (stereo not drawn) [MMV1582490] | 27.4864 | 9.437 | 80.495 | 117.48 | 0.0536 | -0.39 |  |
| Cc1nc(Nc2ccc(F)cc2)nc(N2CCc3ccccc3C2C)c1C (stereo not drawn) [MMV030787] | 56.6945 | -1.879 | -7.918 |  |  |  |  |
| Cl.N=C(N)c1ccc(COc2ccc(Cl)cc2)cc1 [MMV1579844] | 5.845 | -0.5727 | 10.4621 |  |  |  |  |
| O=C(Nc1ccc(F)cc1)c1nn(-c2ccccc2)c(=O)cc1Cl [MMV1578555] | 71.8821 | 4.414 | 31.7823 |  |  |  |  |
